Results: ChEMBL document CHEMBL1201862, “PubChem BioAssay data set” (2004)
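How tested: cells in 96-well plates exposed to compound for 48 hours at five concentrations. GI50 is the concentration that inhibits growth by half.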 The source made the active and inactive calls. No stated cut-off is given here; in the data, active = GI50 up to about 1.1 µM and inactive = higher.

Columns and labels:
Experiment in all cases: DTP human tumour cell line panel, 48 h
[1] = test system: A498
[2] = test system: A549
[3] = test system: COLO 205
[4] = test system: HOP-62
[5] = test system: HT-29
[6] = test system: Hs-578T
[7] = test system: PC-3
[8] = test system: RXF 393
[9] = test system: SF-295
[10] = test system: SK-OV-3
[11] = test system: SN12C
[12] = test system: SNB-19
[13] = test system: SNB-75
[14] = test system: SW-620
[15] = test system: UACC-62
[16] = test system: UO-31
[17] = test system: HCC 2998
[18] = test system: RPMI-8226
[19] = test system: SF-268
[20] = test system: DU-145

| Compound | GI50 [1] | GI50 [2] | GI50 [3] | GI50 [4] | GI50 [5] | GI50 [6] | GI50 [7] | GI50 [8] | GI50 [9] | GI50 [10] | GI50 [11] | GI50 [12] | GI50 [13] | GI50 [14] | GI50 [15] | GI50 [16] | GI50 [17] | GI50 [18] | GI50 [19] | GI50 [20] |
| --- | --- | --- | --- | --- | --- | --- | --- | --- | --- | --- | --- | --- | --- | --- | --- | --- | --- | --- | --- | --- |
| CC1CCC2C(C)(C)CC3(C)CCC1C23O (centres undefined) | 18.5 µM (inactive) | 16.3 µM (inactive) | 18.3 µM (inactive) | 16.4 µM (inactive) | 16.3 µM (inactive) | 16.7 µM (inactive) | 13 µM (inactive) | 17 µM (inactive) | 12.7 µM (inactive) | 29 µM (inactive) | 16.9 µM (inactive) | 29.1 µM (inactive) | 18.8 µM (inactive) | 16 µM (inactive) | 14.9 µM (inactive) | 16.4 µM (inactive) | – | – | – | – |
| N#CC1C[C@@H]2CC3(CCC2CN1C(=O)c1ccccc1)OCCO3 (some centres undefined) | > 100 µM (inactive) | > 100 µM (inactive) | > 100 µM (inactive) | > 100 µM (inactive) | > 100 µM (inactive) | – | – | > 100 µM (inactive) | > 100 µM (inactive) | > 100 µM (inactive) | > 100 µM (inactive) | > 100 µM (inactive) | > 100 µM (inactive) | > 100 µM (inactive) | > 100 µM (inactive) | > 100 µM (inactive) | > 100 µM (inactive) | > 100 µM (inactive) | > 100 µM (inactive) | – |
| CCOP(=O)(OCC)C(c1ccc(F)cc1)N(C(=O)NC(F)(F)F)c1ccc(OC)cc1 (centres undefined) | – | > 100 µM (inactive) | > 100 µM (inactive) | > 100 µM (inactive) | > 100 µM (inactive) | > 100 µM (inactive) | – | > 100 µM (inactive) | > 100 µM (inactive) | – | > 100 µM (inactive) | > 100 µM (inactive) | > 100 µM (inactive) | > 100 µM (inactive) | – | > 100 µM (inactive) | > 100 µM (inactive) | > 100 µM (inactive) | > 100 µM (inactive) | > 100 µM (inactive) |
| COC(=O)[C@@H]1CN(C(=O)c2ccccc2)C(=O)N1C(=O)OCc1ccccc1 | > 100 µM (inactive) | > 100 µM (inactive) | > 100 µM (inactive) | > 100 µM (inactive) | > 100 µM (inactive) | > 100 µM (inactive) | – | > 100 µM (inactive) | > 100 µM (inactive) | > 100 µM (inactive) | > 100 µM (inactive) | > 100 µM (inactive) | > 100 µM (inactive) | > 100 µM (inactive) | > 100 µM (inactive) | > 100 µM (inactive) | > 100 µM (inactive) | > 100 µM (inactive) | > 100 µM (inactive) | > 100 µM (inactive) |
| CC(=O)N(N=O)c1ccc(N(N=O)C(C)=O)cc1 | > 100 µM (inactive) | > 100 µM (inactive) | > 100 µM (inactive) | > 100 µM (inactive) | > 100 µM (inactive) | – | – | > 100 µM (inactive) | > 100 µM (inactive) | > 100 µM (inactive) | > 100 µM (inactive) | > 100 µM (inactive) | > 100 µM (inactive) | > 100 µM (inactive) | > 100 µM (inactive) | > 100 µM (inactive) | > 100 µM (inactive) | > 100 µM (inactive) | > 100 µM (inactive) | – |
| O=C1CCCc2c(O)ccc(O)c21 | > 100 µM (inactive) | > 100 µM (inactive) | > 100 µM (inactive) | > 100 µM (inactive) | > 100 µM (inactive) | – | – | > 100 µM (inactive) | > 100 µM (inactive) | > 100 µM (inactive) | > 100 µM (inactive) | > 100 µM (inactive) | 38.5 µM (inactive) | 61.2 µM (inactive) | > 100 µM (inactive) | > 100 µM (inactive) | > 100 µM (inactive) | 40.6 µM (inactive) | 48.5 µM (inactive) | – |
| O=C(Nc1ccc(Cl)cc1C(F)(F)F)C(=O)Nn1c(S)nc2ccccc2c1=O | > 100 µM (inactive) | > 100 µM (inactive) | – | > 100 µM (inactive) | > 100 µM (inactive) | > 100 µM (inactive) | > 100 µM (inactive) | > 100 µM (inactive) | > 100 µM (inactive) | > 100 µM (inactive) | > 100 µM (inactive) | – | 27.8 µM (inactive) | > 100 µM (inactive) | > 100 µM (inactive) | > 100 µM (inactive) | > 100 µM (inactive) | > 100 µM (inactive) | > 100 µM (inactive) | – |
| Clc1ccccc1CN1COc2c(cc(Cl)c3cccnc23)C1 | – | 3.35 µM (inactive) | 19 µM (inactive) | 3.05 µM (inactive) | 19.2 µM (inactive) | 4.62 µM (inactive) | 2.57 µM (inactive) | 13.7 µM (inactive) | 1.85 µM (inactive) | 8.75 µM (inactive) | 0.0249 µM (active) | 4.35 µM (inactive) | 5.68 µM (inactive) | 5.01 µM (inactive) | 1.52 µM (inactive) | 2.89 µM (inactive) | – | – | 5.18 µM (inactive) | 7.19 µM (inactive) |
| O=C(NN1C(=O)C=CC1=O)c1ccccc1Nc1ccccc1C(=O)NN1C(=O)C=CC1=O | – | – | > 100 µM (inactive) | > 100 µM (inactive) | > 100 µM (inactive) | – | > 100 µM (inactive) | > 100 µM (inactive) | > 100 µM (inactive) | – | > 100 µM (inactive) | > 100 µM (inactive) | > 100 µM (inactive) | > 100 µM (inactive) | > 100 µM (inactive) | > 100 µM (inactive) | > 100 µM (inactive) | > 100 µM (inactive) | > 100 µM (inactive) | > 100 µM (inactive) |
| O=C(NCCCCCCCCCCCCNC(=O)c1cnc2ccccc2n1)c1cnc2ccccc2n1 | 24.9 µM (inactive) | 92.5 µM (inactive) | > 100 µM (inactive) | 20.6 µM (inactive) | > 100 µM (inactive) | – | – | 31.3 µM (inactive) | 37 µM (inactive) | 22.6 µM (inactive) | 66.1 µM (inactive) | 14.8 µM (inactive) | 20.8 µM (inactive) | > 100 µM (inactive) | > 100 µM (inactive) | 23.9 µM (inactive) | > 100 µM (inactive) | 23.4 µM (inactive) | > 100 µM (inactive) | – |
| c1ccc2sc(C3(N4CCC5(CC4)OCCO5)CCCCC3)cc2c1 | > 100 µM (inactive) | > 100 µM (inactive) | 48 µM (inactive) | > 100 µM (inactive) | 21.1 µM (inactive) | > 100 µM (inactive) | – | > 100 µM (inactive) | > 100 µM (inactive) | > 100 µM (inactive) | 88.3 µM (inactive) | > 100 µM (inactive) | 56.4 µM (inactive) | > 100 µM (inactive) | > 100 µM (inactive) | > 100 µM (inactive) | 27.7 µM (inactive) | 29.4 µM (inactive) | > 100 µM (inactive) | > 100 µM (inactive) |
| CCOC(=O)N(NC(=O)NC(C)C)c1ccccc1 | > 100 µM (inactive) | > 100 µM (inactive) | > 100 µM (inactive) | > 100 µM (inactive) | > 100 µM (inactive) | > 100 µM (inactive) | > 100 µM (inactive) | > 100 µM (inactive) | > 100 µM (inactive) | > 100 µM (inactive) | > 100 µM (inactive) | > 100 µM (inactive) | > 100 µM (inactive) | > 100 µM (inactive) | > 100 µM (inactive) | > 100 µM (inactive) | 84.1 µM (inactive) | – | – | – |
| O=C1CCc2nc3ncccc3cc2C1 | > 100 µM (inactive) | > 100 µM (inactive) | > 100 µM (inactive) | > 100 µM (inactive) | – | – | > 100 µM (inactive) | > 100 µM (inactive) | > 100 µM (inactive) | > 100 µM (inactive) | > 100 µM (inactive) | > 100 µM (inactive) | > 100 µM (inactive) | 54.8 µM (inactive) | – | 79.8 µM (inactive) | > 100 µM (inactive) | 64.1 µM (inactive) | 51.8 µM (inactive) | – |
| COc1cc2cc3c4c(cc(OC)c(OC)c4c2cc1OC)CCN3C(=O)OCCN1CCNCC1 | 14.6 µM (inactive) | 18.5 µM (inactive) | 8.22 µM (inactive) | 17.1 µM (inactive) | 12.6 µM (inactive) | – | – | 14.4 µM (inactive) | 15 µM (inactive) | 17.9 µM (inactive) | 15.9 µM (inactive) | 21.9 µM (inactive) | 11.9 µM (inactive) | 14.9 µM (inactive) | 14.9 µM (inactive) | 14.9 µM (inactive) | 16.1 µM (inactive) | 14.1 µM (inactive) | 11.1 µM (inactive) | – |
| CC(C)(O)/C=C\P(=O)(O)O | – | > 100 µM (inactive) | > 100 µM (inactive) | > 100 µM (inactive) | > 100 µM (inactive) | > 100 µM (inactive) | > 100 µM (inactive) | > 100 µM (inactive) | > 100 µM (inactive) | > 100 µM (inactive) | > 100 µM (inactive) | > 100 µM (inactive) | > 100 µM (inactive) | > 100 µM (inactive) | > 100 µM (inactive) | – | > 100 µM (inactive) | – | > 100 µM (inactive) | > 100 µM (inactive) |
| O=C1CCCCC/C1=C\c1cccc([N+](=O)[O-])c1 | > 100 µM (inactive) | 44.6 µM (inactive) | 51.1 µM (inactive) | 38.9 µM (inactive) | 37.2 µM (inactive) | – | 34.3 µM (inactive) | 28.7 µM (inactive) | 23.2 µM (inactive) | 79.1 µM (inactive) | 45.7 µM (inactive) | 38.6 µM (inactive) | 38.2 µM (inactive) | 34.5 µM (inactive) | 22.5 µM (inactive) | 27.7 µM (inactive) | 21.2 µM (inactive) | 21.6 µM (inactive) | 18.5 µM (inactive) | 48.2 µM (inactive) |
